Measured values as given in patent US8318704B2, “Modulation of neural stem cells and neural progenitor cells” (NeuroNova AB, priority 2002, dated 2012).

Experiments:
[1] = test system: new born cells in the caudate putamen; assay: Intracerebroventricular infusion, BrdU-positive cells in caudate putamen; format: in vivo, rat; conditions: S1P 10 μM pump concentration, lateral ventricle, 0.5 μl/hr for 14 days
Procedure: Arrival of animals: 06.1102 (30 animals), 13.11.02 (30 animals) and 20.11.02 (10 animals): Male Wistar rats, ca. 270 g, Harlan-Winkelmann Germany;
Brain infusion kit II; Alzet osmotic mini-pump model 2002 (volume of pump: 200 μl, plus ca. 30-50 μl volume in tubing/flow-moderator; pumping rate: 0.5 μl/h (=12 μl/d) for 14 days; vehicle solution aCSF (artificial cerebrospinal fluid: 148 mM NaCl, 3 mM KCl, 1.4 mM CaCl2, 0.8 mM MgCl2, 1.5 mM Na2HPO4, 0.2 mM NaH2PO4, pH 7.4, sterile filtration; stored at −20° C.
provided as 1 mg solid, dissolved in DMSO, aliquoted and kept in freezer, thawed and added aCSF to make pump solution, 0.1% DMSO maximum. […]
Quantification in ipsilateral hemisphere: two slices (see point “Immunohistochemistry”) counting 2× one box (0.25 mm^2) in caudate putamen on each section.
S1P (10 μM pump concentration) or vehicle, and BrdU (1 mg/ml pump concentration) was infused into the lateral ventricle of adult male Wistar rats at a rate of 0.5 μl/hr for 14 days. […] BrdU incorporated into the nuclei of proliferating cells was detected by DAB-immunohistochemistry. […] For quantification (FIG. 10), sections were taken in duplicate for each animal and counted manually (see above Methods). Results are expressed as the mean±SEM number of BrdU positive cells/0.25 mm^2 (S1P n=8) (Vehicle n=12) (**p<0.005 relative to Vehicle).

adult mouse NSC [2] = assay: Intracellular ATP assay (cell number) in neurosphere-derived NSC; format: cell-based; conditions: for intracellular ATP levels, and hence NSC number, factor alone: S1P 100 nM or EGF 0.1 nM alone, 3 days (FIG. 8); for intracellular ATP levels, and hence cell number, relative to control: 3 days
Procedure: (§1) The anterior lateral wall of the lateral ventricle of 5-6 week old mice was enzymatically dissociated in 0.8 mg/ml hyaluronidase and 0.5 mg/ml trypsin in DMEM containing 4.5 mg/ml glucose and 80 units/ml DNase at 37° C. for 20 min. The cells were gently triturated and mixed with three volumes of Neurosphere medium (DMEM/F12, B27 supplement, 12.5 mM HEPES pH7.4) containing 20 ng/ml EGF (unless otherwise stated), 100 units/ml penicillin and 100 μg/ml streptomycin. After passing through a 70 μm strainer, the cells were pelleted at 160×g for 5 min. The supernatant was subsequently removed and the cells resuspended in Neurosphere medium supplemented as above, plated out in culture dishes and incubated at 37° C. Neurospheres were ready to be split approximately 7 days after plating.
(§2) To split neurosphere cultures, neurospheres were collected by centrifugation at 160×g for 5 min. The neurospheres were resuspended in 0.5 ml Trypsin/EDTA in HBSS (1×), incubated at 37° C. for 2 min and triturated gently to aid dissociation. Following a further 3 min incubation at 37° C. and trituration, 3 volumes of ice cold NSPH-media-EGF were added to stop further trypsin activity. The cells were pelleted at 220×g for 4 min, resuspended in fresh Neurosphere medium supplemented with 20 ng/ml EGF and 1 nM bFGF plated out and incubated at 37° C.
Mouse neurospheres, cultured as described above, from passage 2, were seeded in DMEM/F12 supplemented with B27 into a 96-well plate as single cells (10000 cells/well) to the substances to be measured were added at the concentrations indicated. After 3 days incubation, intracellular ATP was measured using the ViaLight kit (BioWhittaker) according to the manufacturer's instructions. S1P and LPA were purchased from Avanti Polar Lipids, Inc.
(§3) In assays including pertussis toxin, the toxin was added at 100 ng/ml 24 hours prior to the second passaging. New toxin was added at the same dose in combination with S1P or LPA to the cells and assayed as described above.
In the experiment analysing the combinatory effect of S1P and EGF, S1P at 100 nM was co-incubated with 0.1 nM EGF for 3 days.

[3] = in vitro EC50 listed in the handling of substances table
adult mouse NSC [4] = assay: 3H-thymidine incorporation into DNA of NSC; format: cell-based
Procedure: as §1, §2, §3
To determine thymidine incorporation into DNA, neurospheres were split and seeded in Neurosphere medium as single cells in 96-well plates, 10 000 cells/well. Substances to be measured were added in quadruplicates and cells were incubated at 37° C. for 3 days. 3H-thymidine, 10 uCi/ml, was present the last 24 hours. Cells were harvested on to a filter paper and radioactivity was measured. 3H-thymidine (6,7 Ci/mmol) was from PerkinElmer.

primary adult mouse NSC = assay: Primary NSC proliferation and neurosphere formation without growth factors; format: cell-based; conditions: LPA 10 μM, no EGF, 7 days (FIG. 9)
Procedure: as §1
Anterior lateral wall of the lateral ventricle was dissociated as described in the Methods above (Method A), and the cells resuspended in Neurosphere medium without EGF. The cell suspension was divided into a 24-well plate with triplicates of control (no addition), LPA treated and EGF (1 nM) treated cells. The final concentration of LPA was 10 μM. After 7 days the spheres were counted, inspected for growth and morphology and photographed using a Nikon Eclipse TE300 microscope and Nikon Spot Insight camera.

EC50 [3] [µM] | Compound | BrdU labeling of cells in coronal sections through the caudate putamen relative to vehicle ([1]; adult male Wistar rats) | number of BrdU positive cells/0.25 mm^2 (new born cells) in the caudate putamen relative to vehicle ([1]; n=8, p<0.005 (FIG. 10)) | intracellular ATP levels, and hence NSC number, factor alone (adult mouse NSC [2]) | intracellular ATP levels, and hence cell number, relative to control (adult mouse NSC [2]; S1P 1-100 nM, non-adherent conditions (FIG. 4A)) | incorporation of tritiated thymidine relative to control (adult mouse NSC [4]; S1P 1-100 nM, 3 days (FIG. 4B)) | intracellular ATP levels, and hence cell number, relative to control (adult mouse NSC [2]; LPA, two phases: 1-10 nM and 0.11-10 μM, non-adherent conditions (FIG. 5A)) | sizes and number of neurospheres versus control (primary adult mouse NSC) | incorporation of tritiated thymidine relative to control (adult mouse NSC [4]; LPA 4 nM (FIG. 5B)) | incorporation of tritiated thymidine relative to control (adult mouse NSC [4]; LPA 10 nM (FIG. 5B)) | incorporation of tritiated thymidine relative to control (adult mouse NSC [4]; LPA 10 μM (FIG. 5B))
0.03 | CCCCCCCCCCCCC/C=C/[C@@H](O)[C@@H](N)COP(=O)(O)O [S1P, sphingosine-1-phosphate] | substantially greater number | significant increase | increased | statistically significant increase | Greater incorporation | – | – | – | – | –
– | lysophosphatidic acid [LPA] | – | – | – | – | – | statistically significant increases | observably greater | Greater incorporation | no significant incorporation | Greater incorporation
– | EGF: mitogen (growth factor) for neural progenitors, from BD Biosciences | – | – | increased | – | – | – | – | – | – | –
